5 compounds from US9017962B2, “Intracellular reporters” (The Johns Hopkins University, priority 2007, dated 2015) can be followed below.

Entries after “also recorded” stand apart in the source; their conditions may differ.

Holding throughout (type): cell-based
For experiment [1], the system named is Akt. Briefly: AktAR emission ratio imaging in NIH3T3 cells. The protocol:
(§1) NIH 3T3 cells were used in all experiments. The cells were plated on sterilized glass coverslips in 35-mm dishes and were grown to 40% confluency in Dulbecco's modified Eagle's medium (10% FBS) at 37° C. with 5% CO2. Cells were transfected with Lipofectamine (Invitrogen) then serum-starved for 24 h before imaging.
(§2) NIH 3T3 cells were washed once with Hanks' balanced salt solution (HBSS) buffer and imaged in the dark at room temperature. Images were acquired on a Zeiss Axiovert 200M microscope with a cooled charge-coupled device camera, as described in Ananthanarayanan, 2005. Dual emission ratio imaging used a 420DF20 excitation filter, a 450DRLP dichroic mirror, and two emission filters. For CFP and YFP, 475DF40 and 535DF25 were used respectively. Exposure time was 50-500 ms. Images were taken every 20-30 s.
(§3) Imaging data were analyzed with Metafluor 6.2 software (Universal Imaging, Downingtown, Pa.). Fluorescence images were background-corrected by deducting the background (regions with no cells) from the emission intensities of CFP or YFP. Traces before addition of drugs were normalized to 1.

The test system of experiment [2] is Akt. Put plainly: Mito-AktAR imaging, Akt activity at the mitochondrial outer membrane, NIH3T3 cells.
From the text: (§4) All of the targeting tags were subcloned to AktAR from targeted A Kinase Activity Reporter (AKAR) (Allen & Zhang, Biochem Biophys Res Commun. 2006, 22; 348(2):716-21). Two plasma membrane targeted AktAR, PM(Lyn)-AktAR and AktAR-PM(CAAX), were generated by addition of the N-terminal portion of Lyn kinase gene at the 5′ end and CAAX tag at the 3′ end of AktAR, respectively. Nuclear localization was achieved by a C-terminal nuclear localization signal (NLS) tag (PKKKRKVEDA, SEQ ID NO:31). The targeting motif from DAKAP1a was used to target AktAR to the outer membrane of mitochondria.
as §1, §2, §3
It has been known that Akt has several mitochondrial substrates. […] In summary, no basal, PDGF-stimulated, or phosphatase-suppressed endogenous Akt was detected at this location. It is possible that the extremely low activity of Akt at the mitochondrial outer membrane cannot be detected by Mito-AktAR.

Another experiment deals with p38 MAPK. Briefly: JNK reporter specificity: inhibition of p38 MAPK in HeLa cells. Particulars: 25 μM, 45 min pre-treatment and continual presence. The procedure: FIG. 16A-B. Characterization of a MAPK reporter. FIG. 16A, Co-transfection of reporter with mCherry-JIPδ. To inhibit JNK activity, HeLa cells were co-transfected with the reporter and mCherry-JIPδ and imaged 24 h later in HBSS containing 10% FBS on stage warmer heated to 37° C. […] FIG. 16B, Response of reporter to inhibition of p38 MAPK.
To test the specificity of the reporter, HeLa cells were co-transfected with the reporter and a fusion construct of mCherry with the docking (δ) domain from JIP1.

In experiment [3] the test system is calcineurin. Briefly: Calcineurin activity reporter emission ratio imaging in HeLa cells. The following applies: 1 μM, 10 minute preincubation. The procedure:
FIG. 22. Characterization of calcineurin activity reporter 1 (CaNAR1). Graph of representative response of CaNAR1-expressing HeLa cells following ionomycin treatment. Ionomycin (1 μM) and additional CaCl2 (5 mM) were added to the imaging solution at the indicated times (arrows). The standard deviation for each time point is shown (n=2).
(§5) FIG. 23A-B. CaNAR1 is dephosphorylated in a calcineurin-dependent manner. FIG. 23A, graph of average response of CaNAR1 in the presence (black squares) or absence (gray diamonds) of cyclosporin A (CsA, 1-μM, 10 minute preincubation). Ionomycin and CaCl2 treatments are as described for FIG. 22. The standard error at each time point is shown (n=4 and 6 in the presence or absence of CsA, respectively). FIG. 23B, the electrophoretic mobility of CaNAR1 isolated from HeLa cell lysates was determined at various times after ionomycin addition using standard western blotting techniques using a rabbit anti-GFP antibody (diluted 1:4000 in blocking buffer) was used to probe for CaNAR1.
To generate a FRET-based reporter capable of monitoring calcineurin activity in live cells, we initially chose to flank NFAT1(1-415) with ECFP and cpV(L194) at the N- and C-termini, respectively. […] The emission ratio of yellow over cyan was then measured over time in HeLa cells expressing each construct, and their signals compared. […]

The subject of experiment [4] is calcineurin. Briefly: Electrophoretic mobility of CaNAR1 from HeLa cell lysates (western blot). The following applies: preincubation prior to ionomycin treatment. The procedure: as §5
Next, to correlate the FRET change with dephosphorylation of CaNAR1, we took advantage of the fact that the electrophoretic mobility of NFAT1 is strongly influenced by its phosphorylation state. […] Though its calculated molecular weight is 85 kDa, CaNAR1 migrated almost exclusively as an approximately 125 kDa species in uninduced cell lysates, consistent with hyperphosphorylation of its substrate region. […] Thus, the observed FRET change is correlated with dephosphorylation of the reporter by calcineurin, providing a real-time readout for calcineurin activity.

The subject of experiment [5] is Akt. Put plainly: Plasma membrane targeted AktAR imaging in NIH3T3 cells. Particulars: 5 mM pre-incubation for 30 min.
From the text: as §4, §1
NIH 3T3 cells were washed once with Hanks' balanced salt solution (HBSS) buffer and imaged in the dark at room temperature. Images were acquired on a Zeiss Axiovert 200M microscope with a cooled charge-coupled device camera, as described in Ananthanarayanan, 2005. […]
Imaging data were analyzed with Metafluor 6.2 software (Universal Imaging, Downingtown, Pa.). Fluorescence images were background-corrected by deducting the background (regions with no cells) from the emission intensities of CFP or YFP. […]

Take `COC[C@@H]([C@H](O)[C@H](O)C(=O)NCC[C@H](C)c1nc(/C=C/C[C@@H]2O[C@]3(C[C@@H](O)[C@@H]2C)O[C@H]([C@H](C[C@H](O)[C@H](C)[C@H](O)[C@H](C)/C=C(C)/C(C)=C/C=C/C(C)=C\C#N)OC)[C@H](OP(=O)(O)O)C3(C)C)co1)N(C)C` [Calyculin A]: in the experiment on Akt [1] (5 nM after PDGF 50 ng/ml, serum-starved NIH3T3 cells), the “effect on AktAR response” value is listed as “substantially increased the response of AktAR”. For the same compound, the “effect on Mito-AktAR response” value in the experiment with Akt [2] (endogenous Akt, Calyculin A 5 nM or LY294002 20 μM) is “did not recover any Akt activity”; in the experiment on Akt [2] (overexpressed Mito-mCherry-Akt1, Calyculin A 5 nM or LY294002) it was “failed to activate mitochondrial outer membrane-bound Akt”; in the experiment with Akt [2] (overexpressed mCherry-Akt1, after PDGF, Calyculin A 5 nM or LY294002 20 μM), “further increased the response”.
Consider `C[S+]([O-])c1ccc(-c2nc(-c3ccncc3)c(-c3ccc(F)cc3)[nH]2)cc1` (stereo not shown) [SB203580], for which the “effect on response of the reporter to anisomycin” value with p38 MAPK is on record as “does not affect the response of the reporter to anisomycin”.
On to `CCCCCCCCCCCCCCCCCCOC[C@H](COP(=O)(O)O[C@H]1[C@H](O)[C@@H](O)[C@H](O)C[C@H]1OC)OC` [SH-5], for which the “AktAR response to PDGF after pre-incubation with inhibitor” value in the experiment with Akt [1] (6 μM pre-incubation in HBSS, PDGF 50 ng/ml) is “did not show substantial response”.
For the compound Cyclosporin A [CsA], the results for the “effect on FRET change of CaNAR1 induced by ionomycin” value in the experiment with calcineurin [3] and with calcineurin [3] (listed as cyclosporine A) were “completely abolished the FRET change” and “abolished”, respectively. Further, the “effect on electrophoretic mobility of CaNAR1 after ionomycin” value with calcineurin [4] is “no change in the electrophoretic mobility”.
methylated β-cyclodextrin [MβCD]: the “effect on PM(Lyn)-AktAR response to PDGF (lipid rafts)” value in the experiment on Akt [5] is “delayed response and reduced dynamic range; also recorded: diminishes Akt activity at the plasma membrane lipid rafts”.
